Results published in ChEMBL document CHEMBL3751688, “Synthesis, in vitro antimycobacterial evaluation and docking studies of some new 5,6,7,8-tetrahydropyrido[4',3':4,5]thieno[2,3-d]pyrimidin-4(3H)-one schiff bases” (Bioorg Med Chem Lett, 2016).
Converted amounts (≈) assume the structure as drawn.

What was measured:
[1] = tested on: Mycobacterium tuberculosis; experiment: Antimycobacterial activity against isoniazid-resistant Mycobacterium tuberculosis after 14 days by broth microdilution method; type: functional; details: 336 h
[2] = tested on: Mycobacterium tuberculosis; experiment: Antimycobacterial activity against isoniazid-resistant Mycobacterium tuberculosis after 21 days by broth microdilution method; type: functional; details: 504 h

| Structure (SMILES) | MIC [1] | MIC [2] |
| --- | --- | --- |
| Cc1nc2sc3c(c2c(=O)n1/N=C/c1ccc(C#N)cc1)CCN(Cc1ccccc1)C3 | 20 µM (≈ 8.79 µg/mL) | 20 µM (≈ 8.79 µg/mL) |
| N#Cc1ccc(/C=N/n2cnc3sc4c(c3c2=O)CCN(Cc2ccccc2)C4)cc1 | 9 µM (≈ 3.83 µg/mL) | 9 µM (≈ 3.83 µg/mL) |
| O=c1c2c3c(sc2ncn1/N=C/c1ccc(Cl)cc1)CN(Cc1ccccc1)CC3 | 20 µM (≈ 8.7 µg/mL) | 20 µM (≈ 8.7 µg/mL) |
| Cc1nc2sc3c(c2c(=O)n1/N=C/c1ccc(Cl)cc1)CCN(Cc1ccccc1)C3 | 8 µM (≈ 3.59 µg/mL) | 8 µM (≈ 3.59 µg/mL) |
| COc1ccc(/C=N/n2cnc3sc4c(c3c2=O)CCN(Cc2ccccc2)C4)cc1 | 20 µM (≈ 8.61 µg/mL) | 20 µM (≈ 8.61 µg/mL) |
| O=c1c2c3c(sc2ncn1/N=C/c1cccs1)CN(Cc1ccccc1)CC3 | 22 µM (≈ 8.94 µg/mL) | 22 µM (≈ 8.94 µg/mL) |
| CC[C@@H](CO)NCCN[C@@H](CC)CO [ETHAMBUTOL] | 4 µM (≈ 0.817 µg/mL) | 4 µM (≈ 0.817 µg/mL) |
| NNC(=O)c1ccncc1 [ISONIAZID] | > 8 µM | > 8 µM |
| CO[C@H]1/C=C/O[C@@]2(C)Oc3c(C)c(O)c4c(O)c(c(/C=N/N5CCN(C)CC5)c(O)c4c3C2=O)NC(=O)/C(C)=C\C=C\[C@H](C)[C@H](O)[C@@H](C)[C@@H](O)[C@@H](C)[C@H](OC(C)=O)[C@@H]1C [RIFAMPIN] | 2 µM (≈ 1.65 µg/mL) | 2 µM (≈ 1.65 µg/mL) |
| CN[C@@H]1[C@H](O[C@H]2[C@H](O[C@H]3[C@H](O)[C@@H](O)[C@H](N=C(N)N)[C@@H](O)[C@@H]3N=C(N)N)O[C@@H](C)[C@]2(O)C=O)O[C@@H](CO)[C@H](O)[C@H]1O [STREPTOMYCIN] | 2 µM (≈ 1.16 µg/mL) | 2 µM (≈ 1.16 µg/mL) |
